Columns and labels:
[1] = system: A2780 (human ovarian carcinoma) cell line; assay: Antiproliferative activity, MTS assay, A2780; assay type: cell-based; settings: for IC50: 48 h exposure, MTS assay; for Selectivity index (SI), A2780: IC50 fibroblasts/IC50 A2780, values with * calculated taking fibroblast IC50 as 100 μM (minimal value)
Procedure: (§1) Human colorectal carcinoma cell line (HCT116), human breast cancer cell lines (MDA-MB-231 and MCF-7), and normal human primary dermal fibroblasts neonatal (PCS-201-010) cell line were grown in DMEM (Dulbecco’s modified Eagle’s medium) (Invitrogen Corp., Grand Island, NY, USA) supplemented with 10% (v/v) fetal bovine serum and 1% (v/v) antibiotic/antimycotic solution (Invitrogen Corp.). The human ovarian carcinoma (A2780) cell line was cultivated using RPMI (Roswell Park Memorial Institute) medium supplemented as in DMEM medium. The supplemented medium is named a complete medium. Cells were grown in an incubator with a humidified atmosphere at 5% (v/v) CO2 and 37 °C. All cell lines were purchased from ATCC (ATCC, American Type Culture Collection).
(§2) The evaluation of the cytotoxic potential of complexes 1–4 was obtained through in vitro measurements of the antiproliferative activity of these complexes. Cells were plated in 96-well plates at 7.5 × 10^4 cells/mL and incubated at 37 °C with 5% (v/v) CO2. After 24 h, the culture medium was replaced with fresh medium (100 μL) containing 0.1–50 μM of the different complexes and incubated for 48 h in tumor cell lines or containing 0.1–100 μM of the different complexes and incubated for 48 h in fibroblasts. […] The fibroblast cell line was used as a control of the cytotoxicity of the complexes for healthy cells. Cell viability was evaluated using Cell Titer 96 Aqueous Non-Radioactive Cell Proliferation Assay (Promega, Madison, WI, USA) using 3-(4,5-dimethylthiazol-2-yl)-5-(3-carboxymethoxyphenyl)-2-(4-sulfophenyl)-2H-tetrazolium inner salt (MTS), as described previously.[60] In metabolically active cells, enzymes present in the mitochondria catalyze a reaction in which NADPH/NADH is produced. These enzymes reduce the MTS reagent into a brownish product, Formazan, which can be quantified by measuring the absorbance at 490 nm. The quantity of formazan produced is directly proportional to the number of viable cells in the culture. This quantification was executed with a Biorad microplate reader Model 680 (Bio-Rad, Hercules, CA, USA). Half maximal inhibitory concentration (IC50) was calculated using GraphPad Prism 6 (GraphPadSoftware). We have calculated the ratio between the IC50 of fibroblasts and the IC50 of HCT116, A2780, MDA-MB-231, or MCF-7 cell lines for complexes 1–4 that was named herein as the Selectivity index (SI). To ensure the solubility of the complexes in all biological assays, complex solutions were freshly prepared and well solubilized before addition to the cells.

[2] = system: MDA-MB-231 (human breast cancer) cell line; assay: Antiproliferative activity, MTS assay, MDA-MB-231; assay type: cell-based; settings: 48 h exposure
Procedure: as §1, §2

A2780 cell line [3] = assay: Internalization of cobalt by ICP-AES; assay type: cell-based, human; settings: A2780, 10× IC50, ICP-AES, cellular fraction
Procedure: Internalization of the cobalt complexes was evaluated by ICP-AES in the A2780 cell line. For this, the A2780 cell line was seeded in 25 cm^2 T-flasks at a density of 5 × 10^5 cells/T-flask and incubated for 24 h at 37 °C with 5% (v/v) CO2. […] Cells were then incubated for 3, 6, and 12 h at the same conditions as before and for 12 h at 4 °C. The culture media was recovered to a new tube (supernatant fraction) and cells were detached from the T-flask with 2 mL of TripLE Express (TE) (Gibco by life technologies) and centrifuged at 750 × g for 5 min. Then, fresh aqua regia was added to the supernatant tube and to the cellular fractions and incubated overnight at room temperature (RT) in the hood fume. Samples were delivered to Laboratório de Análises/LAQV and the levels of cobalt were evaluated by ICP-AES.

A2780 cell line [4] = assay: Mitochondrial membrane potential (ΔΨM), JC-1 flow cytometry; assay type: cell-based, human; settings: A2780, IC50, 48 h, JC-1 red/green ratio vs DMSO
Procedure: ΔΨM was evaluated in the A2780 cell line using the JC-1 Mitochondrial Membrane Potential Assay Kit (Abnova, Taipei, Taiwan). Cells were seeded at a density of 2 × 10^5 cells/well in 6-well plates and incubated for 24 h. […] After an incubation of 48 h, the cells were washed with PBS 1×, detached with TE, and incubated with JC-1 in RPMI medium without phenol red + 5% (v/v) FBS for 20 min at 37 °C. The cells were then resuspended in the same medium and the ΔΨM was evaluated with the Attune acoustic focusing flow cytometer (ThermoFisher Scientific) and respective software.

ROS in A2780 cell line = assay: Production of reactive oxygen species (H2DCF-DA flow cytometry); assay type: cell-based, human; settings: A2780, IC50, 48 h, vs DMSO
Procedure: The production of ROS was evaluated in the A2780 cell line, seeded in 6-well plates at a density of 2 × 10^5 cells/well, and incubated for 24 h at the same conditions as described above. […] Later, cells were washed with PBS 1×, detached from the wells with TE, and incubated with […] of 2′,7′-dichlorodihydrofluorescein diacetate (H2DCF-DA) (ThermoFisher Scientific, Waltham, MA, USA) in PBS 1× for 20 min at 37 °C. The data were obtained through an Attune acoustic focusing flow cytometer (ThermoFisher Scientific) and respective software.

Row | SMILES | IC50 [1] [µM] | Selectivity index (SI), A2780 [1] | IC50 [2] [µM] | Percentage of internalization, 3 h at 37 °C (A2780 cell line [3]) | Percentage of internalization, 6 h at 37 °C (A2780 cell line [3]) | Percentage of internalization, 12 h at 37 °C (A2780 cell line [3]) | mitochondrial membrane potential (ΔΨM) change (A2780 cell line [4]) | ROS production relative to control (ROS in A2780 cell line)
1 | O=S(=O)([O-])C(F)(F)F.O=S(=O)([O-])C(F)(F)F.[Co+3].c1cc[cH-]c1.c1ccc(P(c2ccccc2)c2ccccc2)cc1.c1cnc2c(c1)ccc1cccnc12 [Complex 3, [Co(η^5-C5H5)(PPh3)(phen)][(CF3SO3)2]] | 6.2 ± 0.1 | 16.1* | > 50 | 49.7% ± 3.5 | 31.9% ± 10.2 | 76.9% ± 15.9 | low (without statistical significance) ΔΨM | 1.7 ×
2 | Cc1ccnc(-c2cc(C)ccn2)c1.O=S(=O)([O-])C(F)(F)F.O=S(=O)([O-])C(F)(F)F.[Co+3].c1cc[cH-]c1.c1ccc(P(c2ccccc2)c2ccccc2)cc1 [Complex 2, [Co(η^5-C5H5)(PPh3)(Me2bipy)][(CF3SO3)2]] | 6.1 ± 0.1 | 16.4* | > 50 | 40.6% ± 2.0 | 50.7% ± 3.3 | 92.6% ± 6.5 | low (without statistical significance) ΔΨM | only a slight increase in the % of ROS
3 | Nc1cc2cccnc2c2ncccc12.O=S(=O)([O-])C(F)(F)F.O=S(=O)([O-])C(F)(F)F.[Co+3].c1cc[cH-]c1.c1ccc(P(c2ccccc2)c2ccccc2)cc1 [Complex 4, [CoCp(PPh3)(NH2phen)][(CF3SO3)2]] | 4.7 ± 0.09 | 21.3* | > 50 | 33.7% ± 2.7 | 43.6% ± 5.8 | 89.3% ± 10.6 | an increase in ΔΨM was observed | 1.9 ×

Reference: PMC10988555, “Exploiting Co(III)-Cyclopentadienyl Complexes To Develop Anticancer Agents” (Inorganic Chemistry, 2024)
